Results on 1 compound are retold here after patent publication US20240398773A1, “COMPOSITIONS COMPRISING OTESECONAZOLE” (Mycovia Pharmaceuticals, Inc., priority 2021, published 2024).

The assay has as its system Candida species. Put plainly: Phase 2a dose-ranging study in moderate-to-severe acute VVC, effective therapeutic cure. Type of assay: in vivo, human. The settings on record: comparator arm, single dose of fluconazole 150 mg; Per Protocol population. The procedure:
Oteseconazole has previously been evaluated in a Phase 2a multi-center, randomized, double-blind, active-controlled, parallel-group, dose-ranging study in patients with moderate-to-severe acute VVC. A total of 55 subjects with moderate-to-severe acute VVC (severity score ≥6 and a positive fungal KOH test) participated in the study across 4 dose groups: 1) oteseconazole 300 mg qd for 3 days: 2) 600 mg qd for 3 days: 3) 600 mg bid for 3 days; or 4) a single dose of fluconazole 150 mg followed by matching placebo. […] No safety signals of clinical concern were observed from the safety assessments.
The efficacy of oteseconazole in the treatment of moderate-to-severe acute VVC was evaluated at the TOC visit in the Per Protocol population at the Day 28 test of cure (TOC) visit was, 87%, 86%, 86%, and 75% of subjects receiving the low, mid-, or high-dose oteseconazole or comparator arm of fluconazole, respectively, achieved an effective therapeutic cure (defined as having a total clinical signs and symptoms severity score of ≤1 and a negative culture for Candida species) in the Per Protocol population

Consider `OC(Cn1cncn1)(Cn1cncn1)c1ccc(F)cc1F` [fluconazole, reference compound], for which the “subjects achieving effective therapeutic cure at Day 28 TOC visit” value amounted to 75%.
